In one test the target is T1, 5-HT2AR (Homo sapiens, UniProt P28223).
T1 construct: host or cells: HEK293, transient
Put plainly: Radioligand binding (competitive displacement and saturation), cell membranes. Particulars: for Ki: pKi 5-HT2AR. As for the experimental part:
(§1) Transfections were performed for 48 hours.

The next test deals with T2, 5-HT2CR (Homo sapiens, UniProt P28335).
T2 sequence (P28335 33-458): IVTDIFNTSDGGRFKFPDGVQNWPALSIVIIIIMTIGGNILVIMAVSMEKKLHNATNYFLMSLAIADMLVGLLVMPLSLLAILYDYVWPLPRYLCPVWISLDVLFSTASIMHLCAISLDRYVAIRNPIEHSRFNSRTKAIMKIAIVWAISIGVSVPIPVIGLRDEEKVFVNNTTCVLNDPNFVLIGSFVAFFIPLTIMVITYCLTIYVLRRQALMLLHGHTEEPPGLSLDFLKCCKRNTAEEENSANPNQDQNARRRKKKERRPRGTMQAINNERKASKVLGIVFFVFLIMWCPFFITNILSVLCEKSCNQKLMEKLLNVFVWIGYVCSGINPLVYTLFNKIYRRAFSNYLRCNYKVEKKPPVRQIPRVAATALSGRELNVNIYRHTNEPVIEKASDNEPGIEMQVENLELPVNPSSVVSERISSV
In words: biochemical.

For a further test, the target named is T3, H1R (Homo sapiens, UniProt P35367).
T3 construct: host or cells: CHO, transient
Put plainly: Radioligand binding (competitive displacement and saturation), cell membranes. As for the experimental part: as §1

Test [1] has as its target T4, 5-HT2BR (Homo sapiens, UniProt P41595). Put plainly: biochemical.
Experimental: (§2) All cells were grown adherently in 10 cm plates in a humidified incubator kept at 37° C. and 5% carbon dioxide. […] Transient transfections were used to express 5-HT2A, 5-HT2C, α1A- or α1B-adrenergic receptors, whereas 5-HT7(a)Rs were stably expressed in HEK293 cells. H1Rs were transiently expressed, and D2Rs were stably expressed in CHO cells.
(§3) Transient transfections were performed on cells in the log growth phase (70-90% confluence). […] Each solution was mixed by inversion before combining, mixed by inversion again, and incubated at 37° C. for 30 minutes. Cells were then washed with 1 mL 1×PBS, followed by the gentle addition of 5 mL of transfection cocktail and 5 mL of cell culture medium with 5% (final) dialyzed FBS. Transfections were performed for 48 hours.
(§4) The affinity of ligands was determined via radioligand binding techniques using human recombinant receptors expressed in mammalian clonal cells.
(§5) Saturation binding experiments were performed on membranes expressing 5-HT2A, 5-HT2B, 5-HT2C, or H1Rs in triplicate across 8 concentrations. Competition binding assays were performed in at least triplicate with approximate Kd concentrations of radioligand. Total and nonspecific binding were determined in octet. […] Serial dilutions of unlabeled compound were made in assay buffer at 2.5× the final concentration using 10 mM DMSO stocks (final [DMSO]≤1%). Assays were terminated using rapid filtration via Whatman GF/B Fired Filters (Brandel Inc., Gaithersburg, MD) soaked in 0.3% (w/v) PEI, using an automated Tomtec Harvester 96 (Hamden, CT).
(§6) Filters were washed with 50 mM Tri-HCl (pH=7.4, 4° C.) before being oven dried and placed into scintillation vials containing 1 mL SX18-4 ScintiVerse^TM BD Cocktail (Fisher Chemical, Fair Lawn, NJ).
(§7) GraphPad Prism (La Jolla, CA) version 9.1.1 was used to analyze all experimental data in this work. To analyze data from saturation binding studies, the radioligand counts per minute (cpm) were normalized to fmol/mg protein bound and then fit the data to a ‘specific binding with hill slope’ model. For competitive radioligand displacement studies, a baseline correction was performed by subtracting the mean nonspecific binding value from the radioligand binding values with and without competitor to obtain specific binding values. Specific binding values were then normalized such that total binding in the absence of competitor represented 100% radioligand binding, and the radioactivity associated with each concentration of competitor was a percentage of total binding. The normalized data was then fit to the ‘one-site Fit Ki’ nonlinear regression model.
Test [2] has as its target T4, 5-HT2BR. Put plainly: Radioligand binding (competitive displacement and saturation), cell membranes.
Experimental: as §2, §3, §4, §5, §6, §7
Setting [3] is: displacement of [^3H]ketanserin, mean of n independent experiments, ± SD where n ≥ 5.
[4] abbreviates: pKi H1R, displacement of [^3H]mepyramine, mean of n independent experiments, ± SD where n ≥ 5.

Data on 25 compounds can be found in patent US20240327353A1.

Where two headings read alike, the source gives them in different places.

T1 sequence (P28223 whole entry): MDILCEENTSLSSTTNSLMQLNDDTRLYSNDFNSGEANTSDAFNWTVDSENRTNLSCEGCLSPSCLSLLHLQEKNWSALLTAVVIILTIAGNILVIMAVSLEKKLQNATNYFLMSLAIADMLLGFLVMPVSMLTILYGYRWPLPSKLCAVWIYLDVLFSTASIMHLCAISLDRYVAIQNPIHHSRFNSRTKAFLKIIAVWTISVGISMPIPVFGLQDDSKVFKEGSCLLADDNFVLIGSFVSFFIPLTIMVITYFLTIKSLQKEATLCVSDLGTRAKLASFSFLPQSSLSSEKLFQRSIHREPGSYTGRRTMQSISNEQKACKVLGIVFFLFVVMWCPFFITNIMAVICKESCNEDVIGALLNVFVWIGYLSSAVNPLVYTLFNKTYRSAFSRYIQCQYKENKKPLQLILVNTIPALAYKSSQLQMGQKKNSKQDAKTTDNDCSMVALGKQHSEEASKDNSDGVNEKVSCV
T4 sequence (P41595 whole entry): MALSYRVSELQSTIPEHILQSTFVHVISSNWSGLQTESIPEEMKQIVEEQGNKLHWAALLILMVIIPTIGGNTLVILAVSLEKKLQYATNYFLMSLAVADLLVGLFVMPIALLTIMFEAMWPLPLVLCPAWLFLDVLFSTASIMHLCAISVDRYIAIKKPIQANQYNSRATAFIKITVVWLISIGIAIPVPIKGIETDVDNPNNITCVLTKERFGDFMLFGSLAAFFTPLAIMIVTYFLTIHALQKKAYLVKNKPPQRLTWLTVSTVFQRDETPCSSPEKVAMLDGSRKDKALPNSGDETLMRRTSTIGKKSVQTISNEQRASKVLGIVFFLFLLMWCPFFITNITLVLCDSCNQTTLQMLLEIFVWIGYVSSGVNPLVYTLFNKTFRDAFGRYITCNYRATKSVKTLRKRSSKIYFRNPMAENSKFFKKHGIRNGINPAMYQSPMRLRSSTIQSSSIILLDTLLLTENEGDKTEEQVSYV
T3 sequence (P35367 whole entry): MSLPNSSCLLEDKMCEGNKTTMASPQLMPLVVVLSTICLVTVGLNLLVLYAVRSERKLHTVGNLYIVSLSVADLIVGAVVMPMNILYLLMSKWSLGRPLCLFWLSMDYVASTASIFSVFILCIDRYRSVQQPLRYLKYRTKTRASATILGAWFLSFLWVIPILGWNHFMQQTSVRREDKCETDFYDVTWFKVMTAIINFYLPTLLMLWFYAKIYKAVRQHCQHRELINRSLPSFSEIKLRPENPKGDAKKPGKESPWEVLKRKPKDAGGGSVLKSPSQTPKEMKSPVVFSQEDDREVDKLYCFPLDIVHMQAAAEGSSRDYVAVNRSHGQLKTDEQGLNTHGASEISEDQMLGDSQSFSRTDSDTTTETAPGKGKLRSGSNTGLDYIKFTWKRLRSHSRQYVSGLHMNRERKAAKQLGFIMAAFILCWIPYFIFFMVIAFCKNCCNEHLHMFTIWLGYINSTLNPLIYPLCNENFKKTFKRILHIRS
Experimental for 5-HT2CR: as §2, §3, §4, §5, §6, §7

In the case of `CN(C)[C@@H]1Cc2ccccc2[C@H](c2cccc(-c3ccc(Cl)cc3)c2)C1` (single isomer, unassigned) [(2S,4S)-3j, Cis-4-(4′-chloro-[1,1′-biphenyl]-3-yl)-N,N-dimethyl-1,2,3,4-tetrahydronaphthalen-2-amine], the Ki on 5-HT2AR (setting [3]) is 63.1 nM; on 5-HT2CR it was 97.7 nM.
For `CN(C)[C@@H]1Cc2ccccc2[C@H](c2cccc(-c3cccs3)c2)C1` (single isomer, unassigned) [(2S,4S)-3c, Cis-4-(3-(thiophen-2-yl)phenyl)-N,N-dimethyl-1,2,3,4-tetrahydronaphthalen-2-amine], the Ki on 5-HT2AR was 151 nM; on H1R (read-out: pKi H1R (converted)), 437 nM; at 5-HT2BR [1], 89.1 nM; on 5-HT2CR it was 224 nM.
With `CN(C)c1ccc(-c2cccc(C3CC(N(C)C)Cc4ccccc43)c2)cc1` [(2R,4S)-2k, Trans-4-(4′-(dimethylamino)-[1,1′-biphenyl]-3-yl)-N,N-dimethyl-1,2,3,4-tetra-hydronaph-thalen-2-amine], on 5-HT2BR [2], the “pKi 5-HT2BR” value was 5.52^(2) 5.68-5.37 7.10 ± 0.21^(5) 7.40-6.82 5.97^(2) 6.08-5.87 5.97^(2) 6.09-5.86.
Regarding `CN(C)[C@@H]1Cc2ccccc2[C@@H](c2cccc(-c3cccc(F)c3)c2)C1` [(2S,4R)-2h, Trans-4-(3′-fluoro-[1,1′-biphenyl]-3-yl)-N,N-dimethyl-1,2,3,4-tetrahydronaphtha-len-2-amine], on 5-HT2AR (setting [3]), the “pKi 5-HT2AR” value was determined as 9.22. In addition, the “pKi H1R” value at H1R (displacement of [^3H]mepyramine, mean of n independent experiments, ± SD where n ≥ 5) is recorded as 8.96.
Take `CN(C)[C@@H]1Cc2ccccc2[C@@H](c2cccc(-c3ccccc3)c2)C1` (single isomer, unassigned) [(2S,4R)-2f, Trans-4-([1,1′-biphenyl]-3-yl)-N,N-dimethyl-1,2,3,4-tetrahydronaphthalen-2-amine]: the Ki is 52.5 nM at 5-HT2BR [1] and 3.31 nM at 5-HT2CR.
Take `CN(C)[C@@H]1Cc2ccccc2[C@H](c2cccc(-c3ccco3)c2)C1` (single isomer, unassigned) [(2R,4R)-3d, Cis-4-(3-(furan-2-yl)phenyl)-N,N-dimethyl-1,2,3,4-tetrahydronaphthalen-2-amine]: the Ki on H1R (setting [4]) is 50.1 nM.
With `CN(C)c1ccc(-c2cccc([C@@H]3C[C@H](N(C)C)Cc4ccccc43)c2)cc1` (single isomer, unassigned) [(2R,4R)-3k, Cis-4-(4′-(dimethylamino)-[1,1′-biphenyl]-3-yl)-N,N-dimethyl-1,2,3,4-tetrahydro-naphthalen-2-amine], at 5-HT2BR [2], the “pKi 5-HT2BR” value is 5.52^(2) 5.68-5.37 7.10 ± 0.21^(5) 7.40-6.82 5.97^(2) 6.08-5.87 5.97^(2) 6.09-5.86.
With `CN(C)[C@@H]1Cc2ccccc2[C@H](c2cccc(F)c2)C1` (single isomer, unassigned) [(2R,4R)-3b′, Cis-4-(3-fluorophenyl)-N, N-dimethyl-1,2,3,4-tetrahydronaphthalen-2-amine], the Ki on 5-HT2BR [1] is 447 nM; at 5-HT2CR it was 251 nM.
On to `CN(C)[C@@H]1Cc2ccccc2[C@H](c2cccc(-c3ccccc3)c2)C1` (single isomer, unassigned) [(2R,4R)-3f, Cis-4-([1,1′-biphenyl]-3-yl)-N,N-dimethyl-1,2,3,4-tetrahydronaphthalen-2-amine], for which the Ki on 5-HT2BR [1] is 117 nM; on 5-HT2CR, 26.9 nM.
As to `CN(C)C1Cc2ccccc2C(c2cccc(-c3ccccc3F)c2)C1` (single isomer, unassigned) [(2R,4S)-2g, Trans-4-(2′-fluoro-[1,1′-biphenyl]-3-yl)-N, N-dimethyl-1,2,3,4-tetrahydronaphtha-len-2-amine], the Ki is 30.9 nM on 5-HT2AR (setting [3]) and 43.7 nM at 5-HT2BR [1]. The “pKi H1R” value at H1R is 6.93^(2) 7.02-6.84 8.75^(4) 9.1-8.62 ND 6.54^(2) 6.67-6.40.
The compound `CN(C)[C@@H]1Cc2ccccc2[C@@H](c2cccc(-c3ccco3)c2)C1` (single isomer, unassigned) [(2S,4R)-2d, Trans-4-(3-(furan-2-yl)phenyl)-N,N-dimethyl-1,2,3,4-tetrahydronaphthalen-2-amine] came in with a Ki on H1R (setting [4]) of 3.39 nM.
For the compound `CN(C)[C@@H]1Cc2ccccc2[C@H](c2cccc(-c3ccc(Cl)cc3)c2)C1` (single isomer, unassigned) [(2R,4R)-3j, Cis-4-(4′-chloro-[1,1′-biphenyl]-3-yl)-N,N-dimethyl-1,2,3,4-tetrahydronaphthalen-2-amine], the values for the Ki on 5-HT2AR (setting [3]) and on 5-HT2CR were 1.7 nM and 9.33 nM, respectively. The “pKi H1R” value on H1R is 7.84^(2) 7.89-7.78 8.84^(3) 8.86-8.82 ND 6.40^(3) 6.41-6.40.
Take `CN(C)[C@@H]1Cc2ccccc2[C@H](c2cccc(F)c2)C1` (single isomer, unassigned) [(2S,4S)-3b′, Cis-4-(3-fluorophenyl)-N, N-dimethyl-1,2,3,4-tetrahydronaphthalen-2-amine]: the Ki on 5-HT2BR [1] is 912 nM; at 5-HT2CR it was 437 nM.
As to `CN(C)[C@@H]1Cc2ccccc2[C@H](c2cccc(Cl)c2)C1` (single isomer, unassigned) [(2R,4R)-3b, Cis-4-(3-chlorophenyl)-N, N-dimethyl-1,2,3,4-tetrahydronaphthalen-2-amine], the Ki on 5-HT2BR [1] was 115 nM.
`CN(C)[C@@H]1Cc2ccccc2[C@@H](c2cccc(-c3ccc(Cl)cc3)c2)C1` [(2S,4R)-2j, Trans-4-(4′-chloro-[1,1′-biphenyl]-3-yl)-N,N-dimethyl-1,2,3,4-tetrahydronaphtha-len-2-amine]: the results for the Ki on 5-HT2AR (setting [3]), on H1R (setting [4]) and at 5-HT2CR were 0.288 nM, 1.45 nM and 4.9 nM, respectively.
For `CN(C)[C@@H]1Cc2ccccc2[C@@H](c2cccc(-c3ccncc3)c2)C1` (single isomer, unassigned) [(2S,4R)-2e, Trans-4-(3-(pyridin-4-yl)phenyl)-N,N-dimethyl-1,2,3,4-tetrahydronaphthalen-2-amine], in that order: 7.41 nM, 1.38 nM and 42.7 nM.
With `CN(C)C1Cc2ccccc2C(c2cccc(-c3ccccc3F)c2)C1` (single isomer, unassigned) [(2S,4R)-2g, Trans-4-(2′-fluoro-[1,1′-biphenyl]-3-yl)-N, N-dimethyl-1,2,3,4-tetrahydronaphtha-len-2-amine], the Ki was 0.813 nM at 5-HT2AR (setting [3]), 1.78 nM at H1R (setting [4]) and 81.3 nM on 5-HT2BR [1].
On to `CN(C)[C@@H]1Cc2ccccc2[C@@H](c2cccc(-c3ccccc3)c2)C1` (single isomer, unassigned) [(2R,4S)-2f, Trans-4-([1,1′-biphenyl]-3-yl)-N,N-dimethyl-1,2,3,4-tetrahydronaphthalen-2-amine], for which the results for the Ki on 5-HT2BR [1] and at 5-HT2CR were 112 nM and 69.2 nM, respectively.
On to `CN(C)[C@@H]1Cc2ccccc2[C@H](c2cccc(Br)c2)C1` (single isomer, unassigned) [(2R,4R)-3a, Cis-4-(3-bromophenyl)-N, N-dimethyl-1,2,3,4-tetrahydronaphthalen-2-amine], for which the Ki is 31.6 nM on 5-HT2AR (setting [3]), 85.1 nM at 5-HT2BR [1] and 57.5 nM on 5-HT2CR.
For `CN(C)c1ccc(-c2cccc([C@@H]3C[C@H](N(C)C)Cc4ccccc43)c2)cc1` (single isomer, unassigned) [(2S,4S)-3k, Cis-4-(4′-(dimethylamino)-[1,1′-biphenyl]-3-yl)-N,N-dimethyl-1,2,3,4-tetrahydro-naphthalen-2-amine], at 5-HT2BR [2], the “pKi 5-HT2BR” value was 5.52^(2) 5.68-5.37 7.10 ± 0.21^(5) 7.40-6.82 5.97^(2) 6.08-5.87 5.97^(2) 6.09-5.86.
`CN(C)[C@@H]1Cc2ccccc2[C@H](c2cccc(-c3cccs3)c2)C1` (single isomer, unassigned) [(2R,4R)-3c, Cis-4-(3-(thiophen-2-yl)phenyl)-N,N-dimethyl-1,2,3,4-tetrahydronaphthalen-2-amine]: the “selectivity for 5-HT2ARs over 5-HT2B and H1Rs” value on 5-HT2AR (one figure for both off-targets) is recorded as 30-60 fold. In addition, the Ki at 5-HT2AR is 3.55 nM; on H1R (read-out: pKi H1R (converted)) it was 234 nM; on 5-HT2BR [1] it was 105 nM; at 5-HT2CR it was 24 nM.
As for `CN(C)C1Cc2ccccc2C(c2cccc(-c3cccc(F)c3)c2)C1` [(2R,4S)-2h, Trans-4-(3′-fluoro-[1,1′-biphenyl]-3-yl)-N,N-dimethyl-1,2,3,4-tetrahydronaphtha-len-2-amine], the “pKi 5-HT2AR” value on 5-HT2AR (setting [3]) came to 8.03. The same compound had a Ki on H1R (setting [4]) of 49 nM.
Regarding `CN(C)C1Cc2ccccc2C(c2cccc(-c3ccc(Cl)cc3)c2)C1` [(2R,4S)-2j, Trans-4-(4′-chloro-[1,1′-biphenyl]-3-yl)-N,N-dimethyl-1,2,3,4-tetrahydronaphtha-len-2-amine], the Ki is 5.37 nM on 5-HT2AR (setting [3]), 14.5 nM at H1R (setting [4]) and 7.08 nM on 5-HT2CR.
In the case of `CN(C)[C@@H]1Cc2ccccc2[C@H](c2cccc(Cl)c2)C1` (single isomer, unassigned) [(2S,4S)-3b, Cis-4-(3-chlorophenyl)-N, N-dimethyl-1,2,3,4-tetrahydronaphthalen-2-amine], at 5-HT2BR [1], the Ki is 389 nM.
As for `CN(C)[C@@H]1Cc2ccccc2[C@H](c2cccc(-c3cccc(F)c3)c2)C1` (single isomer, unassigned) [(2S,4S)-3h, Cis-4-(3′-fluoro-[1,1′-biphenyl]-3-yl)-N,N-dimethyl-1,2,3,4-tetrahydronaphthalen-2-amine], the “pKi 5-HT2AR” value on 5-HT2AR (setting [3]) was 7.69. The “pKi H1R” value on H1R is recorded as 7.31 ^(2) 7.39-7.23 8.96^(3) 9.11-8.88 6.20^(2) 6.23-6.18 6.30 ± 0.10^(5) 6.42-6.14.
